Experimental data as given in PubChem BioAssay (NCI).
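48-hour exposure; five concentrations; linearly interpolated endpoints. The concentration for full growth arrest is given as TGI.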

tested on: HS 578T breast; experiment: inhibition of tumour cell growth, NCI panel, 48 h

Row | SMILES | TGI [µM]
1 | CCOC1C=CC(=O)C(CO)O1 (stereo not given) | 49
2 | Cc1c2cccc-2c2cc(O)c3ccccc3c2n1-c1ccc(N(C)C)cc1 | 37.5
3 | O=c1[nH]c(NCc2ccncc2)nc2nc[nH]c12 | > 100
4 | O=CC(I)=C(c1ccccc1)c1ccccc1 | 63
5 | Cn1c2ccccc2c2ccc3c(c21)C(=O)c1ccc2c4ccccc4n(C)c2c1C3=O | > 100
6 | Cc1ccc(-c2cc(-c3ccco3)c(C#N)c(=S)[nH]2)cc1 | > 100
7 | COc1ccc(C)cc1N1C(=O)C2ON(Cc3ccc(CC(N)=O)cc3)C(c3c4ccccc4c(Cl)c4ccccc34)C2C1=O (stereo not given) | > 100
8 | COc1ccc(C2Oc3ccc(Cl)cc3C=C2[N+](=O)[O-])cc1 (stereo not given) | > 100
9 | COCOc1ccc(C(=O)Oc2cccc3c2OC(C)(C)O3)c(OCOC)c1 | 86
10 | COC(=O)c1ccccc1C1CN=NC12Cc1c(ccc(C)c1C)C2=O (stereo not given) | > 100
11 | NCCN1CCCCCc2ccccc21 | > 10
12 | CN(C)CCN(c1ccccn1)c1ccccn1 | > 100
13 | CN(CCN1CCCC1)C1CCc2cc(Cl)c(Cl)cc2C1 (stereo not given) | 56.2
14 | CC(C)Oc1cccc(N2C(n3ccnc3)=Nc3ccncc3S2(=O)=O)c1 | 38.5
15 | CC(C)NC(=O)OCc1c(COC(=O)NC(C)C)n(C)c2c1ccc1sccc12 | 34.6
16 | O=C(CC(NC(=O)C(F)(F)F)C(=O)O)OCc1ccccc1 (stereo not given) | > 100

tested on: T-47D breast; experiment: inhibition of tumour cell growth, NCI panel, 48 h

Row | SMILES | TGI [µM]
17 | O=C(/C=C/c1ccc(Cl)cc1)Oc1ccc(C=C2CCC/C(=C\c3ccc(OC(=O)/C=C/c4ccc(Cl)cc4)cc3)C2=O)cc1 | > 100
18 | COc1ccc2c(c1)c1c(n2CCN2CCCCC2)-c2cccc(OC)c2CC1 | 47.2
19 | COc1ccc2nc(NC(=O)/C(C#N)=C/c3ccccc3)sc2c1 | > 100
20 | Cc1c(C)n(-c2ccccc2)c2nc(S(C)=O)nc(S(C)=O)c12 (stereo not given) | 8.62
21 | CC1(C)CC(=O)C2=C(C1)C(c1ccccc1Cl)C1C(=O)CC(C)(C)CC1(O)O2 (stereo not given) | > 100
22 | CCc1c(O)cc(=O)oc1-c1ccc(OC)c(OC)c1 | > 100
23 | Cc1ccc2c(c1C)C(=O)C1(Cc3cc4c(cc3C1=O)CCC4)C2 (stereo not given) | > 100
24 | CCCCI(O)OS(=O)(=O)c1ccc(C)cc1 | > 100
25 | C[C@@H]1CC[C@@]2(C)C(C(=O)O)=CCCC2[C@@]1(C)CC(=O)c1ccoc1 (stereo not given in full) | > 25
26 | O=C(CCc1cc(O)cc(O)c1)NCCc1cc(OCc2ccccc2)cc(OCc2ccccc2)c1 | 39.3
27 | c1ccc(C2=NC3OC2c2ccccc23)cc1 (stereo not given) | > 10
28 | O=c1oc2ccc3ccccc3c2cc1-c1cn2ccsc2n1 | 57.6
29 | CCOC(=O)CSc1nc(N)c2c(-c3ccccc3)c3c(nc2n1)CCCC3 | > 100
30 | COC(=O)/C=C(/C=C1/C(C#N)=C(N)N(c2ccc(Cl)cc2)C1(C)/C(=C\C(=O)OC)C(=O)OC)C(=O)OC (stereo not given) | 39.5
31 | O=c1c2c3c(sc2[nH]c(=S)n1-c1ccccc1)CCCc1ccc([N+](=O)[O-])cc1-3 | 37.1
32 | CCOC(=O)c1c(N2CCCC2)[nH]c(=O)c(C(c2ccc(OC)cc2)c2c(O)c(C(=O)OCC)c(N3CCCC3)[nH]c2=O)c1O | > 100

Row | SMILES | TGI [µM]
33 | CCOC1C=CC(=O)C(CO)O1 (stereo not given) | 24.9
34 | Cc1c2cccc-2c2cc(O)c3ccccc3c2n1-c1ccc(N(C)C)cc1 | 0.829
35 | O=c1[nH]c(NCc2ccncc2)nc2nc[nH]c12 | > 100
36 | O=CC(I)=C(c1ccccc1)c1ccccc1 | 34.9
37 | Cn1c2ccccc2c2ccc3c(c21)C(=O)c1ccc2c4ccccc4n(C)c2c1C3=O | > 100
38 | Cc1ccc(-c2cc(-c3ccco3)c(C#N)c(=S)[nH]2)cc1 | 71.5
39 | COc1ccc(C)cc1N1C(=O)C2ON(Cc3ccc(CC(N)=O)cc3)C(c3c4ccccc4c(Cl)c4ccccc34)C2C1=O (stereo not given) | > 100
40 | COc1ccc(C2Oc3ccc(Cl)cc3C=C2[N+](=O)[O-])cc1 (stereo not given) | > 100
41 | COCOc1ccc(C(=O)Oc2cccc3c2OC(C)(C)O3)c(OCOC)c1 | > 100
42 | COC(=O)c1ccccc1C1CN=NC12Cc1c(ccc(C)c1C)C2=O (stereo not given) | > 100
43 | NCCN1CCCCCc2ccccc21 | > 10
44 | CN(C)CCN(c1ccccn1)c1ccccn1 | > 100
45 | CN(CCN1CCCC1)C1CCc2cc(Cl)c(Cl)cc2C1 (stereo not given) | 22.1
46 | CC(C)Oc1cccc(N2C(n3ccnc3)=Nc3ccncc3S2(=O)=O)c1 | 41.5
47 | CC(C)NC(=O)OCc1c(COC(=O)NC(C)C)n(C)c2c1ccc1sccc12 | 47.2
48 | O=C(CC(NC(=O)C(F)(F)F)C(=O)O)OCc1ccccc1 (stereo not given) | > 100

tested on: 786-0 renal; experiment: inhibition of tumour cell growth, NCI panel, 48 h

Row | SMILES | TGI [µM]
49 | O=C(/C=C/c1ccc(Cl)cc1)Oc1ccc(C=C2CCC/C(=C\c3ccc(OC(=O)/C=C/c4ccc(Cl)cc4)cc3)C2=O)cc1 | > 100
50 | COc1ccc2c(c1)c1c(n2CCN2CCCCC2)-c2cccc(OC)c2CC1 | 55.4
51 | COc1ccc2nc(NC(=O)/C(C#N)=C/c3ccccc3)sc2c1 | > 100
52 | Cc1c(C)n(-c2ccccc2)c2nc(S(C)=O)nc(S(C)=O)c12 (stereo not given) | 10.1
53 | CC1(C)CC(=O)C2=C(C1)C(c1ccccc1Cl)C1C(=O)CC(C)(C)CC1(O)O2 (stereo not given) | > 100
54 | CCc1c(O)cc(=O)oc1-c1ccc(OC)c(OC)c1 | > 100
55 | Cc1ccc2c(c1C)C(=O)C1(Cc3cc4c(cc3C1=O)CCC4)C2 (stereo not given) | > 100
56 | CCCCI(O)OS(=O)(=O)c1ccc(C)cc1 | > 100
57 | C[C@@H]1CC[C@@]2(C)C(C(=O)O)=CCCC2[C@@]1(C)CC(=O)c1ccoc1 (stereo not given in full) | > 25
58 | O=C(CCc1cc(O)cc(O)c1)NCCc1cc(OCc2ccccc2)cc(OCc2ccccc2)c1 | 41
59 | c1ccc(C2=NC3OC2c2ccccc23)cc1 (stereo not given) | > 10
60 | O=c1oc2ccc3ccccc3c2cc1-c1cn2ccsc2n1 | 32.7
61 | CCOC(=O)CSc1nc(N)c2c(-c3ccccc3)c3c(nc2n1)CCCC3 | > 100
62 | COC(=O)/C=C(/C=C1/C(C#N)=C(N)N(c2ccc(Cl)cc2)C1(C)/C(=C\C(=O)OC)C(=O)OC)C(=O)OC (stereo not given) | 32.7
63 | O=c1c2c3c(sc2[nH]c(=S)n1-c1ccccc1)CCCc1ccc([N+](=O)[O-])cc1-3 | > 100
64 | CCOC(=O)c1c(N2CCCC2)[nH]c(=O)c(C(c2ccc(OC)cc2)c2c(O)c(C(=O)OCC)c(N3CCCC3)[nH]c2=O)c1O | > 100

Row | SMILES | TGI [µM]
65 | CCOC1C=CC(=O)C(CO)O1 (stereo not given) | 14.2
66 | Cc1c2cccc-2c2cc(O)c3ccccc3c2n1-c1ccc(N(C)C)cc1 | 33.1
67 | O=c1[nH]c(NCc2ccncc2)nc2nc[nH]c12 | > 100
68 | O=CC(I)=C(c1ccccc1)c1ccccc1 | 28.9
69 | Cn1c2ccccc2c2ccc3c(c21)C(=O)c1ccc2c4ccccc4n(C)c2c1C3=O | > 100
70 | Cc1ccc(-c2cc(-c3ccco3)c(C#N)c(=S)[nH]2)cc1 | > 100
71 | COc1ccc(C)cc1N1C(=O)C2ON(Cc3ccc(CC(N)=O)cc3)C(c3c4ccccc4c(Cl)c4ccccc34)C2C1=O (stereo not given) | 50.2
72 | COc1ccc(C2Oc3ccc(Cl)cc3C=C2[N+](=O)[O-])cc1 (stereo not given) | > 100
73 | COCOc1ccc(C(=O)Oc2cccc3c2OC(C)(C)O3)c(OCOC)c1 | > 100
74 | COC(=O)c1ccccc1C1CN=NC12Cc1c(ccc(C)c1C)C2=O (stereo not given) | > 100
75 | NCCN1CCCCCc2ccccc21 | > 10
76 | CN(C)CCN(c1ccccn1)c1ccccn1 | > 100
77 | CN(CCN1CCCC1)C1CCc2cc(Cl)c(Cl)cc2C1 (stereo not given) | 28.3
78 | CC(C)Oc1cccc(N2C(n3ccnc3)=Nc3ccncc3S2(=O)=O)c1 | 22.1
79 | CC(C)NC(=O)OCc1c(COC(=O)NC(C)C)n(C)c2c1ccc1sccc12 | 36.8
80 | O=C(CC(NC(=O)C(F)(F)F)C(=O)O)OCc1ccccc1 (stereo not given) | > 100
